For the first experiment, the target named is T1, Akt3 (Homo sapiens, UniProt Q9Y243).
T1 construct: endogenous in cells
T1 sequence (Q9Y243 whole entry): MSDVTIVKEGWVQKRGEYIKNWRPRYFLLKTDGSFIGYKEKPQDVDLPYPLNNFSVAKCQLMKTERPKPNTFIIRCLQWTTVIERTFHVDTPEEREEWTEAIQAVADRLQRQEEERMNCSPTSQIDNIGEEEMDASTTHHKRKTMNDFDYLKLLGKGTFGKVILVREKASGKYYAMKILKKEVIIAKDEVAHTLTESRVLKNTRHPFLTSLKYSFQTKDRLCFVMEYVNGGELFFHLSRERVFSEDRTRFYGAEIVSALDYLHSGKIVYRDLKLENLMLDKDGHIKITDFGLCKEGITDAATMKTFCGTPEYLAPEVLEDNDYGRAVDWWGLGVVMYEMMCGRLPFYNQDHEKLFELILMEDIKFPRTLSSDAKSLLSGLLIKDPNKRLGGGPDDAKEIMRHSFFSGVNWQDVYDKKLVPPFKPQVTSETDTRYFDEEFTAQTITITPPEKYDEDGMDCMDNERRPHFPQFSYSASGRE
In words: Akt3 activation activity of selected compounds. Type of experiment: cell-based.
As a reminder, the EC50 is the concentration at which the effect is half-maximal. Low values mean greater potency, high ones weaker potency. Consider `Cc1cc(Nc2ccc3[nH]c(-c4ccc(Nc5cc(C)nc6ccc(N7CC(C)OC(C)C7)cc56)cn4)nc3c2)ccn1` (stereo not drawn) [Compound 77, 6-(2,6-dimethylmorpholino)-2-methyl-N-(6-(5-(2-methylpyridin-4-ylamino)-1H-benzo[d]imidazol-2-yl)pyridin-3-yl)quinolin-4-amine], for which the EC50 is < 50 nM.

In the case of `Cc1cc(Nc2ccc3[nH]c(-c4ccc(Nc5cc(C)nc6ccc(N7CCOCC7)cc56)cn4)nc3n2)ccn1` [Compound 70, 2-methyl-N-(6-(5-(2-methylpyridin-4-ylamino)-1H-imidazo [4,5-b]pyridin-2-yl)pyridin-3-yl)-6-morpholinoquinolin-4-amine], the EC50 is < 2000 nM.

In the case of `Cc1cc(Nc2ccc3[nH]c(-c4ccc(Nc5cc(C)nc6ccc(N7CC(C)OC(C)C7)cc56)cc4)nc3c2)ccn1` (stereo not drawn) [Compound 76, 6-(2,6-dimethylmorpholino)-2-methyl-N-(4-(5-(2-methylpyridin-4-ylamino)-1H-benzo[d]imidazol-2-yl)phenyl)quinolin-4-amine], the EC50 is < 50 nM.

Regarding `Cc1cc(Nc2ccc3[nH]c(-c4ccc(Nc5ccnc6ccc(N(C)C)cc56)cc4)nc3c2)ccn1` [Compound 37, N^6,N^6-dimethyl-N^4-(4-(5-((2-methylpyridin-4-yl)amino)-1H-benzo [d]imidazol-2-yl)phenyl)quinoline-4,6-diamine], the EC50 is < 5000 nM.

For `Cc1cc(Nc2ccc3[nH]c(-c4ccc(Nc5cc(C)nc6ccc(N7CCOCC7)cc56)cn4)nc3c2)ccn1` [Compound 74, 2-methyl-N-(6-(5-(2-methylpyridin-4-ylamino)-1H-benzo[d]imidazol-2-yl)pyridin-3-yl)-6-morpholinoquinolin-4-amine], the EC50 is < 50 nM.

With `Cc1cc(Nc2ccc3[nH]c(-c4ccc(Nc5ccnc6ccc(N7CC(C)OC(C)C7)cc56)cc4)nc3c2)ccn1` (stereo not drawn) [Compound 75, 6-(2,6-dimethylmorpholino)-N-(4-(5-((2-methylpyridin-4-yl)amino)-1H-benzo[d]imidazol-2-yl)phenyl)quinolin-4-amine], the 50% effective concentration (EC50) was < 20 nM.

On to `Cc1cc(Nc2ccc3[nH]c(-c4ccc(Nc5ccnc6ccc(N7CCOCC7)cc56)nc4)nc3c2)ccn1` [Compound 71, N-(5-(5-((2-methylpyridin-4-yl)amino)-1H-benzo[d]imidazol-2-yl)pyridin-2-yl)-6-morpholinoquinolin-4-amine], for which the EC50 is < 50 nM.

Turning to `Cc1cc(Nc2ccc3[nH]c(-c4ccc(Nc5cc(C)nc6ccc(N7CCOCC7)cc56)nc4)nc3c2)ccn1` [Compound 73, 2-methyl-N-(5-(5-(2-methylpyridin-4-ylamino)-1H-benzo[d]imidazol-2-yl)pyridin-2-yl)-6-morpholinoquinolin-4-amine], the EC50 was < 50 nM.

Turning to `Cc1cc(Nc2ccc3[nH]c(-c4ccc(Nc5ccnc6ccc(N7CCOCC7)cc56)cn4)nc3c2)ccn1` [Compound 69, N-(6-(5-((2-methylpyridin-4-yl)amino)-1H-benzo[d]imidazol-2-yl)pyridin-3-yl)-6-morpholinoquinolin-4-amine], the EC50 is < 20 nM.

A further experiment deals with T1, Akt3. The experiment in a line: Akt3 inhibition activity of selected compounds. Type of experiment: cell-based.
The term IC50 denotes the concentration at which inhibition is half-maximal. As for `O=C(Nc1cccc(Nc2ccncc2)c1)c1ccc(Nc2ccnc3ccc(F)cc23)cc1` [Compound 2, 4-((6-fluoroquinolin-4-yl)amino)-N-(3-(pyridin-4-ylamino)phenyl)benzamide], the half-maximal inhibitory concentration (IC50) is < 1000 nM.

For `Cc1cc(Nc2ccc(C(=O)Nc3cccc(Oc4ccncc4)c3)cc2)c2ccccc2n1` [Compound 15, 4-((2-methylquinolin-4-yl)amino)-N-(3-(pyridin-4-yloxy)phenyl)benzamide], the IC50 was < 2000 nM.

For the compound `N#Cc1cc(Nc2cccc(NC(=O)c3ccc(Nc4ccncc4)cc3)c2)ccn1` [Compound 30, N-(3-(2-cyanopyridin-4-ylamino)phenyl)-4-(pyridin-4-ylamino)benzamide], the IC50 was < 5000 nM.

As for `O=C(Nc1cccc(Nc2ccncc2)c1)c1ccc(Nc2ccnc3ccccc23)cc1` [Compound 5, N-(3-(pyridin-4-ylamino)phenyl)-4-(quinolin-4-ylamino)benzamide], the IC50 is < 2000 nM.

With `O=C(Nc1cc(Nc2ccncc2)ccn1)c1ccc(Nc2ccncc2)cc1` [Compound 24, 4-(pyridin-4-ylamino)-N-(4-(pyridin-4-ylamino)pyridin-2-yl)benzamide], the IC50 is < 5000 nM.

Take `Cc1c(Nc2cccc(NC(=O)c3ccc(Nc4ccncc4)cc3)c2)ccnc1N` [Compound 92, N-(3-(2-amino-3-methylpyridin-4-ylamino)phenyl)-4-(pyridin-4-ylamino)benzamide]: the half-inhibitory concentration (IC50) was < 5000 nM.

In the case of `Cc1cnc2ccccc2c1Nc1ccc(C(=O)Nc2cccc(Nc3ccncc3)c2)cc1` [Compound 14, 4-((3-methylquinolin-4-yl)amino)-N-(3-(pyridin-4-ylamino)phenyl)benzamide], the IC50 is < 500 nM.

For `Cc1cc(Nc2cccc(NC(=O)c3ccc(Nc4ccncc4)cc3)c2)ccn1` [Compound 22, N-(3-((2-methylpyridin-4-yl)amino)phenyl)-4-(pyridin-4-ylamino)benzamide], the IC50 was < 2000 nM.

Take `Cc1cc(Nc2ccc(C(=O)Nc3cccc(Nc4ccnc(C)c4)c3)cc2)ccn1` [Compound 23, 4-((2-methylpyridin-4-yl)amino)-N-(3-((2-methylpyridin-4-yl)amino)phenyl)benzamide]: the IC50 was < 2000 nM.

Regarding `Cc1cc(Nc2cccc(NC(=O)c3ccc(Nc4ccncc4)cc3)c2)cc(N)n1` [Compound 94, N-(3-(2-amino-6-methylpyridin-4-ylamino)phenyl)-4-(pyridin-4-ylamino)benzamide], the IC50 was < 2000 nM.

As to `Cc1cnc2ccccc2c1Nc1ccc(C(=O)Nc2cccc(Oc3ccncc3)c2)cc1` [Compound 13, 4-((3-methylquinolin-4-yl)amino)-N-(3-(pyridin-4-yloxy)phenyl)benzamide], the IC50 was < 5000 nM.

For the compound `Cc1ccc2c(Nc3ccc(C(=O)Nc4cccc(Oc5ccncc5)c4)cc3)ccnc2c1` [Compound 17, 4-((7-methylquinolin-4-yl)amino)-N-(3-(pyridin-4-yloxy)phenyl)benzamide], the IC50 was < 5000 nM.

In the case of `O=C(Nc1cccc(Nc2ccncc2)c1)c1ccc(Nc2ccncc2)cc1` [Compound 10, 4-(pyridin-4-ylamino)-N-(3-(pyridin-4-ylamino)phenyl)benzamide], the IC50 was < 1000 nM.

Take `Nc1cc(Nc2cccc(NC(=O)c3ccc(Nc4ccncc4)cc3)c2)ccn1` [Compound 93, N-(3-(2-aminopyridin-4-ylamino)phenyl)-4-(pyridin-4-ylamino)benzamide]: the half-maximal inhibitory concentration (IC50) was < 2000 nM.

As to `O=C(Nc1cccc(Nc2ccnc(F)c2)c1)c1ccc(Nc2ccncc2)cc1` [Compound 31, N-(3-(2-fluoropyridin-4-ylamino)phenyl)-4-(pyridin-4-ylamino)benzamide], the 50% inhibitory concentration (IC50) was < 1000 nM.
